In brackets after ≈: the same amount, converted by molar mass.
test system: Bacillus subtilis; assay: In vitro antimicrobial activity against Bacillus subtilis ATCC 6633; format: functional; conditions: not given

| Structure (SMILES) | MIC [µg/mL] |
| --- | --- |
| CO/N=C1/CN(c2cc3c(cc2F)c(=O)c(C(=O)O)cn3C2CC2)CC1N (configuration not stated) | ≤ 0.008 |
| NC1CN(c2c(F)cc3c(=O)c(C(=O)O)cn(C4CC4)c3c2F)C/C1=N\O (configuration not stated) | 0.063 (≈ 0.167 µM) |
| O=C(O)c1cn(C2CC2)c2cc(N3CCNCC3)c(F)cc2c1=O [CIPROFLOXACIN] | 0.031 (≈ 0.0936 µM) |

test system: not listed separately; assay: AUC value after administration of 20 mg/Kg oral dose in rat; format: ADME, organism-based; conditions: plasma

| Structure (SMILES) | AUC [ng·h/mL] |
| --- | --- |
| O=C(O)c1cn(C2CC2)c2cc(N3CCNCC3)c(F)cc2c1=O [CIPROFLOXACIN] | 2590 |

test system: Escherichia coli; assay: In vitro antimicrobial activity against Escherichia coli 3190Y; format: functional; conditions: not given

| Structure (SMILES) | MIC [µg/mL] |
| --- | --- |
| CO/N=C1/CN(c2cc3c(cc2F)c(=O)c(C(=O)O)cn3C2CC2)CC1N (configuration not stated) | ≤ 0.008 |
| NC1CN(c2c(F)cc3c(=O)c(C(=O)O)cn(C4CC4)c3c2F)C/C1=N\O (configuration not stated) | ≤ 0.008 |
| O=C(O)c1cn(C2CC2)c2cc(N3CCNCC3)c(F)cc2c1=O [CIPROFLOXACIN] | ≤ 0.008 |

test system: Klebsiella aerogenes; assay: In vitro antimicrobial activity against Klebsiella aerogenes 1076E; format: functional; conditions: not given

| Structure (SMILES) | MIC [µg/mL] |
| --- | --- |
| CO/N=C1/CN(c2cc3c(cc2F)c(=O)c(C(=O)O)cn3C2CC2)CC1N (configuration not stated) | 0.25 (≈ 0.668 µM) |
| NC1CN(c2c(F)cc3c(=O)c(C(=O)O)cn(C4CC4)c3c2F)C/C1=N\O (configuration not stated) | 0.5 (≈ 1.32 µM) |
| O=C(O)c1cn(C2CC2)c2cc(N3CCNCC3)c(F)cc2c1=O [CIPROFLOXACIN] | 0.13 (≈ 0.392 µM) |

test system: Enterobacter cloacae; assay: In vitro antimicrobial activity against Enterobacter cloacae p99; format: functional; conditions: not given

| Structure (SMILES) | MIC [µg/mL] |
| --- | --- |
| CO/N=C1/CN(c2cc3c(cc2F)c(=O)c(C(=O)O)cn3C2CC2)CC1N (configuration not stated) | ≤ 0.008 |
| NC1CN(c2c(F)cc3c(=O)c(C(=O)O)cn(C4CC4)c3c2F)C/C1=N\O (configuration not stated) | 0.031 (≈ 0.0819 µM) |

test system: Citrobacter koseri; assay: In vitro antimicrobial activity against Citrobacter diversus 2046E; format: functional; conditions: not given

| Structure (SMILES) | MIC [µg/mL] |
| --- | --- |
| CO/N=C1/CN(c2cc3c(cc2F)c(=O)c(C(=O)O)cn3C2CC2)CC1N (configuration not stated) | 0.031 (≈ 0.0828 µM) |
| NC1CN(c2c(F)cc3c(=O)c(C(=O)O)cn(C4CC4)c3c2F)C/C1=N\O (configuration not stated) | 0.13 (≈ 0.344 µM) |
| O=C(O)c1cn(C2CC2)c2cc(N3CCNCC3)c(F)cc2c1=O [CIPROFLOXACIN] | 0.016 (≈ 0.0483 µM) |

test system: Micrococcus luteus; assay: In vitro antimicrobial activity against Micrococcus luteus ATCC 9341; format: functional; conditions: not given

| Structure (SMILES) | MIC [µg/mL] |
| --- | --- |
| CO/N=C1/CN(c2cc3c(cc2F)c(=O)c(C(=O)O)cn3C2CC2)CC1N (configuration not stated) | 0.25 (≈ 0.668 µM) |
| NC1CN(c2c(F)cc3c(=O)c(C(=O)O)cn(C4CC4)c3c2F)C/C1=N\O (configuration not stated) | 0.25 (≈ 0.661 µM) |
| O=C(O)c1cn(C2CC2)c2cc(N3CCNCC3)c(F)cc2c1=O [CIPROFLOXACIN] | 4 (≈ 12.1 µM) |

test system: Staphylococcus aureus; assay: In vitro antimicrobial activity against Staphylococcus aureus 241; format: functional; conditions: not given

| Structure (SMILES) | MIC [µg/mL] |
| --- | --- |
| CO/N=C1/CN(c2cc3c(cc2F)c(=O)c(C(=O)O)cn3C2CC2)CC1N (configuration not stated) | 32 (≈ 85.5 µM) |
| NC1CN(c2c(F)cc3c(=O)c(C(=O)O)cn(C4CC4)c3c2F)C/C1=N\O (configuration not stated) | 32 (≈ 84.6 µM) |
| O=C(O)c1cn(C2CC2)c2cc(N3CCNCC3)c(F)cc2c1=O [CIPROFLOXACIN] | 128 (≈ 386 µM) |

test system: Escherichia coli; assay: In vitro antimicrobial activity against Escherichia coli TEM5 3739E; format: functional; conditions: not given

| Structure (SMILES) | MIC [µg/mL] |
| --- | --- |
| CO/N=C1/CN(c2cc3c(cc2F)c(=O)c(C(=O)O)cn3C2CC2)CC1N (configuration not stated) | 0.5 (≈ 1.34 µM) |
| NC1CN(c2c(F)cc3c(=O)c(C(=O)O)cn(C4CC4)c3c2F)C/C1=N\O (configuration not stated) | 0.5 (≈ 1.32 µM) |
| O=C(O)c1cn(C2CC2)c2cc(N3CCNCC3)c(F)cc2c1=O [CIPROFLOXACIN] | 0.13 (≈ 0.392 µM) |

test system: Staphylococcus aureus; assay: In vitro antimicrobial activity against Staphylococcus aureus giorgio; format: functional; conditions: not given

| Structure (SMILES) | MIC [µg/mL] |
| --- | --- |
| CO/N=C1/CN(c2cc3c(cc2F)c(=O)c(C(=O)O)cn3C2CC2)CC1N (configuration not stated) | 0.016 (≈ 0.0427 µM) |
| NC1CN(c2c(F)cc3c(=O)c(C(=O)O)cn(C4CC4)c3c2F)C/C1=N\O (configuration not stated) | 0.063 (≈ 0.167 µM) |
| O=C(O)c1cn(C2CC2)c2cc(N3CCNCC3)c(F)cc2c1=O [CIPROFLOXACIN] | 0.25 (≈ 0.754 µM) |

test system: Staphylococcus aureus; assay: In vitro antimicrobial activity against Staphylococcus aureus 77; format: functional; conditions: not given

| Structure (SMILES) | MIC [µg/mL] |
| --- | --- |
| CO/N=C1/CN(c2cc3c(cc2F)c(=O)c(C(=O)O)cn3C2CC2)CC1N (configuration not stated) | 0.031 (≈ 0.0828 µM) |
| NC1CN(c2c(F)cc3c(=O)c(C(=O)O)cn(C4CC4)c3c2F)C/C1=N\O (configuration not stated) | 0.063 (≈ 0.167 µM) |
| O=C(O)c1cn(C2CC2)c2cc(N3CCNCC3)c(F)cc2c1=O [CIPROFLOXACIN] | 0.25 (≈ 0.754 µM) |

test system: not listed separately; assay: in vivo; conditions: dog, po, 4 mg/kg

| Structure (SMILES) | Cmax [ng/mL] |
| --- | --- |
| O=C(O)c1cn(C2CC2)c2cc(N3CCNCC3)c(F)cc2c1=O [CIPROFLOXACIN] | 910 |

test system: Pseudomonas aeruginosa; assay: In vitro antimicrobial activity against Pseudomonas aeruginosa 1012E; format: functional; conditions: not given

| Structure (SMILES) | MIC [µg/mL] |
| --- | --- |
| CO/N=C1/CN(c2cc3c(cc2F)c(=O)c(C(=O)O)cn3C2CC2)CC1N (configuration not stated) | 1 (≈ 2.67 µM) |
| NC1CN(c2c(F)cc3c(=O)c(C(=O)O)cn(C4CC4)c3c2F)C/C1=N\O (configuration not stated) | 1 (≈ 2.64 µM) |
| O=C(O)c1cn(C2CC2)c2cc(N3CCNCC3)c(F)cc2c1=O [CIPROFLOXACIN] | 0.13 (≈ 0.392 µM) |

test system: not listed separately; assay: Tmax value after administration of 4 mg/Kg oral dose in dog; format: ADME, organism-based, Canis lupus familiaris; conditions: in vivo

| Structure (SMILES) | Tmax [min] |
| --- | --- |
| O=C(O)c1cn(C2CC2)c2cc(N3CCNCC3)c(F)cc2c1=O [CIPROFLOXACIN] | 67.2 |

test system: not listed separately; assay: Cmax value after administration of 20 mg/Kg oral dose in rat; format: ADME, organism-based; parameters: dose 20 mg/Kg, route oral; conditions: in vivo

| Structure (SMILES) | Cmax [ng/mL] |
| --- | --- |
| O=C(O)c1cn(C2CC2)c2cc(N3CCNCC3)c(F)cc2c1=O [CIPROFLOXACIN] | 900 |

test system: not listed separately; assay: Tmax value after administration of 20 mg/Kg oral dose in rat; format: ADME, organism-based; conditions: in vivo

| Structure (SMILES) | Tmax [min] |
| --- | --- |
| O=C(O)c1cn(C2CC2)c2cc(N3CCNCC3)c(F)cc2c1=O [CIPROFLOXACIN] | 6.6 |

test system: Staphylococcus epidermidis; assay: In vitro antimicrobial activity against Staphylococcus epidermis 178; format: functional; conditions: not given

| Structure (SMILES) | MIC [µg/mL] |
| --- | --- |
| CO/N=C1/CN(c2cc3c(cc2F)c(=O)c(C(=O)O)cn3C2CC2)CC1N (configuration not stated) | 16 (≈ 42.7 µM) |
| NC1CN(c2c(F)cc3c(=O)c(C(=O)O)cn(C4CC4)c3c2F)C/C1=N\O (configuration not stated) | 64 (≈ 169 µM) |
| O=C(O)c1cn(C2CC2)c2cc(N3CCNCC3)c(F)cc2c1=O [CIPROFLOXACIN] | 128 (≈ 386 µM) |

test system: Salmonella typhimurium; assay: In vitro antimicrobial activity against Salmonella Typhimurium 14028; format: functional, Salmonella enterica subsp. enterica serovar Typhimurium; conditions: Salmonella enterica

| Structure (SMILES) | MIC [µg/mL] |
| --- | --- |
| CO/N=C1/CN(c2cc3c(cc2F)c(=O)c(C(=O)O)cn3C2CC2)CC1N (configuration not stated) | 0.13 (≈ 0.347 µM) |
| NC1CN(c2c(F)cc3c(=O)c(C(=O)O)cn(C4CC4)c3c2F)C/C1=N\O (configuration not stated) | 0.63 (≈ 1.67 µM) |
| O=C(O)c1cn(C2CC2)c2cc(N3CCNCC3)c(F)cc2c1=O [CIPROFLOXACIN] | 0.031 (≈ 0.0936 µM) |

test system: Escherichia coli; assay: In vitro antimicrobial activity against Escherichia coli 851E; format: functional; conditions: not given

| Structure (SMILES) | MIC [µg/mL] |
| --- | --- |
| CO/N=C1/CN(c2cc3c(cc2F)c(=O)c(C(=O)O)cn3C2CC2)CC1N (configuration not stated) | 0.031 (≈ 0.0828 µM) |
| NC1CN(c2c(F)cc3c(=O)c(C(=O)O)cn(C4CC4)c3c2F)C/C1=N\O (configuration not stated) | 0.031 (≈ 0.0819 µM) |

test system: Staphylococcus epidermidis; assay: In vitro antimicrobial activity against Staphylococcus epidermis 887E; format: functional; conditions: not given

| Structure (SMILES) | MIC [µg/mL] |
| --- | --- |
| CO/N=C1/CN(c2cc3c(cc2F)c(=O)c(C(=O)O)cn3C2CC2)CC1N (configuration not stated) | 0.031 (≈ 0.0828 µM) |
| NC1CN(c2c(F)cc3c(=O)c(C(=O)O)cn(C4CC4)c3c2F)C/C1=N\O (configuration not stated) | 0.13 (≈ 0.344 µM) |
| O=C(O)c1cn(C2CC2)c2cc(N3CCNCC3)c(F)cc2c1=O [CIPROFLOXACIN] | 0.13 (≈ 0.392 µM) |

test system: Mus musculus; assay: In vivo efficacy against systemic infection of Staphylococcus aureus giorgio in mouse; format: functional; conditions: not given

| Structure (SMILES) | ED50 [mg/kg] |
| --- | --- |
| O=C(O)c1cn(C2CC2)c2cc(N3CCNCC3)c(F)cc2c1=O [CIPROFLOXACIN] | 7.46 |

test system: not listed separately; assay: in vivo; conditions: dog, in vivo, po, 4 mg/kg

| Structure (SMILES) | AUC [ng·h/mL] |
| --- | --- |
| O=C(O)c1cn(C2CC2)c2cc(N3CCNCC3)c(F)cc2c1=O [CIPROFLOXACIN] | 4540 |

test system: Mus musculus; assay: In vivo efficacy against systemic infection of Pseudomonas aeruginosa 1912E in mouse; format: functional; conditions: not given

| Structure (SMILES) | ED50 [mg/kg] |
| --- | --- |
| O=C(O)c1cn(C2CC2)c2cc(N3CCNCC3)c(F)cc2c1=O [CIPROFLOXACIN] | 3.11 |

test system: Acinetobacter calcoaceticus; assay: In vitro antimicrobial activity against Acinetobacter calcoaceticus 15473; format: functional; conditions: not given

| Structure (SMILES) | MIC [µg/mL] |
| --- | --- |
| CO/N=C1/CN(c2cc3c(cc2F)c(=O)c(C(=O)O)cn3C2CC2)CC1N (configuration not stated) | 0.031 (≈ 0.0828 µM) |
| NC1CN(c2c(F)cc3c(=O)c(C(=O)O)cn(C4CC4)c3c2F)C/C1=N\O (configuration not stated) | 0.5 (≈ 1.32 µM) |
| O=C(O)c1cn(C2CC2)c2cc(N3CCNCC3)c(F)cc2c1=O [CIPROFLOXACIN] | 0.25 (≈ 0.754 µM) |

test system: Escherichia coli; assay: In vitro antimicrobial activity against Escherichia coli 10536; format: functional; conditions: not given

| Structure (SMILES) | MIC [µg/mL] |
| --- | --- |
| CO/N=C1/CN(c2cc3c(cc2F)c(=O)c(C(=O)O)cn3C2CC2)CC1N (configuration not stated) | 0.016 (≈ 0.0427 µM) |
| NC1CN(c2c(F)cc3c(=O)c(C(=O)O)cn(C4CC4)c3c2F)C/C1=N\O (configuration not stated) | 0.016 (≈ 0.0423 µM) |
| O=C(O)c1cn(C2CC2)c2cc(N3CCNCC3)c(F)cc2c1=O [CIPROFLOXACIN] | ≤ 0.008 |

Source: ChEMBL document CHEMBL1130731, “Methyloxime-substituted aminopyrrolidine: a new surrogate for 7-basic group of quinolone” (Bioorg Med Chem Lett, 1998)
